The test relates to L1210 leukemia ip in BDF1 mice, survival T/C. As to the kind of experiment: NCI In Vivo Anticancer Drug Screen. Data for tumor model L1210 Leukemia (intraperitoneal) in B6D2F1 (BDF1) mice. Conditions: endpoint: mean survival time, higher = longer survival. The method, then: The antitumor activity of compounds was measured in mice bearing transplantable tumors. Survival or tumor size were measured and the results are expressed as the measurement made in the treated group (T) divided by the measurement made in the vehicle treated control group (C). The tumor model used in this assay is L1210 Leukemia (intraperitoneal) in B6D2F1 (BDF1) mice

Where [1] appears, read: dose: 100.0 mg/kg/injection, schedule: Q04DX002 (ip), vehicle: Klucel (hydroxypropylcellulose) (HPC).
The mark [2] stands for this setting: dose: 200.0 mg/kg/injection, schedule: Q04DX002 (ip), vehicle: Klucel (hydroxypropylcellulose) (HPC).
Where [3] appears, read: dose: 400.0 mg/kg/injection, schedule: Q04DX002 (ip), vehicle: Klucel (hydroxypropylcellulose) (HPC).
Where [4] appears, read: dose: 100.0 mg/kg/injection, schedule: Q01DX009 (ip), vehicle: water.
The mark [5] stands for this setting: dose: 200.0 mg/kg/injection, schedule: Q01DX009 (ip), vehicle: water.
Where [6] appears, read: dose: 100.0 mg/kg/injection, schedule: Q01DX001 (ip), vehicle: carboxymethylcellulose (CMC).
[7] abbreviates: dose: 200.0 mg/kg/injection, schedule: Q01DX001 (ip), vehicle: carboxymethylcellulose (CMC).
Setting [8] is: dose: 400.0 mg/kg/injection, schedule: Q01DX001 (ip), vehicle: carboxymethylcellulose (CMC).
Setting [9] is: dose: 100.0 mg/kg/injection, schedule: Q01DX001 (ip), vehicle: Klucel (hydroxypropylcellulose) (HPC).
Where [10] appears, read: dose: 100.0 mg/kg/injection, schedule: Q01DX009 (ip), vehicle: Klucel (hydroxypropylcellulose) (HPC).
[11] abbreviates: dose: 200.0 mg/kg/injection, schedule: Q01DX001 (ip), vehicle: Klucel (hydroxypropylcellulose) (HPC).
[12] abbreviates: dose: 200.0 mg/kg/injection, schedule: Q01DX009 (ip), vehicle: Klucel (hydroxypropylcellulose) (HPC).
The mark [13] stands for this setting: dose: 400.0 mg/kg/injection, schedule: Q01DX001 (ip), vehicle: Klucel (hydroxypropylcellulose) (HPC).
Setting [14] is: dose: 400.0 mg/kg/injection, schedule: Q01DX009 (ip), vehicle: Klucel (hydroxypropylcellulose) (HPC).
Setting [15] is: dose: 100.0 mg/kg/injection, schedule: Q04DX003 (ip), vehicle: saline with Tween-80.
Where [16] appears, read: dose: 200.0 mg/kg/injection, schedule: Q04DX003 (ip), vehicle: saline with Tween-80.
Where [17] appears, read: dose: 400.0 mg/kg/injection, schedule: Q04DX003 (ip), vehicle: saline with Tween-80.

“And” between values parts separate entries of the source, which are not always exact repeats. Equal entries are not always repeated. Toxic doses and inconclusive results are not listed.

On to `CCN(CC)c1ccc(S(=O)(=O)NC(=O)OC)cc1`, for which the T/C reads like this: under setting [1], 98 % of control; under setting [2], 112 % of control; under setting [3], 112 % of control.

In the case of `CS(=O)(=O)O/C=C1\C(=O)OC2CCCCC12` (centres undefined), the T/C is, setting by setting: (dose: 12.5 mg/kg/injection, schedule: Q01DX009 (ip), vehicle: water) 111 % of control; (dose: 25.0 mg/kg/injection, schedule: Q01DX009 (ip), vehicle: water) 105 % of control; (dose: 50.0 mg/kg/injection, schedule: Q01DX009 (ip), vehicle: water) 100 % of control; under setting [4], 105 % of control; under setting [5], 106 % of control.

Regarding `CC(=O)Nc1ccc(S(=O)(=O)N=S(c2ccccc2)c2ccccc2)cc1`, the T/C (dose: 50.0 mg/kg/injection, schedule: Q01DX001 (ip), vehicle: carboxymethylcellulose (CMC)) is 101 % of control; the T/C under setting [6] was 101 % of control; the T/C under setting [7] is 94 % of control; the T/C under setting [8] is 97 % of control.

As to `CC(C)(C)c1cccc(C(C)(C)C)c1O`, the T/C runs as follows: (dose: 100.0 mg/kg/injection, schedule: Q04DX003 (ip), vehicle: saline) 102 % of control; (dose: 200.0 mg/kg/injection, schedule: Q04DX003 (ip), vehicle: saline) 98 % of control; (dose: 400.0 mg/kg/injection, schedule: Q04DX003 (ip), vehicle: saline) 90 % of control.

`CC(=O)NC1CCC2CCCCC2C1` (centres undefined): the T/C is 97 % of control under setting [9]; 103 % of control under setting [10]; 97 % of control (dose: 100.0 mg/kg/injection, schedule: Q04DX003 (ip), vehicle: Klucel (hydroxypropylcellulose) (HPC)); 101 % of control under setting [11]; 95 % of control under setting [12]; 99 % of control (dose: 200.0 mg/kg/injection, schedule: Q04DX003 (ip), vehicle: Klucel (hydroxypropylcellulose) (HPC)). Further, the T/C was 101 % of control under setting [13]; 98 % of control under setting [14]; 96 % of control (dose: 400.0 mg/kg/injection, schedule: Q04DX003 (ip), vehicle: Klucel (hydroxypropylcellulose) (HPC)).

On to `CC(=O)N(N=Nc1ccc(Cl)cc1)c1ccc(Cl)cc1`, for which the T/C runs as follows: (dose: 50.0 mg/kg/injection, schedule: Q01DX009 (ip), vehicle: saline with Tween-80) 98 % of control; (dose: 100.0 mg/kg/injection, schedule: Q01DX009 (ip), vehicle: saline with Tween-80) 98 % of control; (dose: 200.0 mg/kg/injection, schedule: Q01DX009 (ip), vehicle: saline with Tween-80) 98 % of control.

As for `CC(=O)N(C1=C(N(CCO)CCO)C(=O)c2ccccc2C1=O)c1ccccc1`, the T/C reads like this: under setting [15], 106 % of control; under setting [16], 103 % of control; under setting [17], 101 % of control.

On to `CN(CCCl)C1c2ccccc2-c2ccccc21`, for which the T/C reads like this: (dose: 25.0 mg/kg/injection, schedule: Q04DX002 (ip), vehicle: saline) 100 % of control; (dose: 50.0 mg/kg/injection, schedule: Q04DX002 (ip), vehicle: saline) 100 % of control; (dose: 100.0 mg/kg/injection, schedule: Q04DX002 (ip), vehicle: saline) 106 % of control and 117 % of control.

On to `N#CCCN1CCCCCC1`, for which the T/C (dose: 15.0 mg/kg/injection, schedule: Q01DX009 (ip), vehicle: saline with Tween-80) was 98 % of control; the T/C (dose: 30.0 mg/kg/injection, schedule: Q01DX009 (ip), vehicle: saline with Tween-80) was 95 % of control; the T/C (dose: 30.0 mg/kg/injection, schedule: Q04DX003 (ip), vehicle: saline with Tween-80) is 92 % of control; the T/C (dose: 60.0 mg/kg/injection, schedule: Q01DX009 (ip), vehicle: saline with Tween-80) was 104 % of control; the T/C (dose: 60.0 mg/kg/injection, schedule: Q04DX003 (ip), vehicle: saline with Tween-80) was 109 % of control.

`C[n+]1ccn(Cc2ccc([N+](=O)[O-])cc2)c1`: the T/C was 171 % of control under setting [15] and 90 % of control under setting [16].

In the case of `Cc1ccc(NCC(=O)NN)cc1C`, the T/C under setting [6] was 106 % of control; the T/C (dose: 100.0 mg/kg/injection, schedule: Q01DX009 (ip), vehicle: carboxymethylcellulose (CMC)) was 106 % of control and 91 % of control; the T/C under setting [1] is 91 % of control; the T/C (dose: 100.0 mg/kg/injection, schedule: Q04DX002 (ip), vehicle: carboxymethylcellulose (CMC)) is 115 % of control; the T/C (dose: 100.0 mg/kg/injection, schedule: Q04DX003 (ip), vehicle: carboxymethylcellulose (CMC)) is 101 % of control; the T/C under setting [7] was 94 % of control. In addition, the T/C by setting is: (dose: 200.0 mg/kg/injection, schedule: Q01DX009 (ip), vehicle: carboxymethylcellulose (CMC)) 105 % of control and 109 % of control; under setting [2], 98 % of control; (dose: 200.0 mg/kg/injection, schedule: Q04DX002 (ip), vehicle: carboxymethylcellulose (CMC)) 94 % of control; (dose: 200.0 mg/kg/injection, schedule: Q04DX003 (ip), vehicle: carboxymethylcellulose (CMC)) 89 % of control; under setting [8], 96 % of control; (dose: 400.0 mg/kg/injection, schedule: Q01DX009 (ip), vehicle: carboxymethylcellulose (CMC)) 95 % of control and 100 % of control. For the same molecule, the T/C reads like this: under setting [3], 113 % of control; (dose: 400.0 mg/kg/injection, schedule: Q04DX002 (ip), vehicle: carboxymethylcellulose (CMC)) 97 % of control; (dose: 400.0 mg/kg/injection, schedule: Q04DX003 (ip), vehicle: carboxymethylcellulose (CMC)) 101 % of control.

As to `O=[N+]([O-])c1cccc(C=Nc2cc([N+](=O)[O-])ccc2O)c1`, the T/C is 88 % of control under setting [10] and 93 % of control under setting [12].

Consider `O=C(OCCCl)c1ccco1`, for which the T/C by setting is: (dose: 100.0 mg/kg/injection, schedule: Q01DX001 (ip), vehicle: saline) 102 % of control; (dose: 200.0 mg/kg/injection, schedule: Q01DX001 (ip), vehicle: saline) 102 % of control; (dose: 400.0 mg/kg/injection, schedule: Q01DX001 (ip), vehicle: saline) 107 % of control.

`CCCSCC`: the T/C is, setting by setting: under setting [15], 93 % of control; under setting [16], 91 % of control; under setting [17], 101 % of control.

With `COC(=O)Cc1c[nH]c(=O)[nH]c1=O`, the T/C is 102 % of control under setting [4]; 93 % of control (dose: 100.0 mg/kg/injection, schedule: Q04DX003 (ip), vehicle: water); 98 % of control under setting [5]; 104 % of control (dose: 200.0 mg/kg/injection, schedule: Q04DX003 (ip), vehicle: water); 95 % of control (dose: 400.0 mg/kg/injection, schedule: Q04DX003 (ip), vehicle: water).

For the molecule `CCCCOS(=O)(=O)c1ccc(N)cc1`, the T/C is 229 % of control (dose: 50.0 mg/kg/injection, schedule: Q01DX009 (ip), vehicle: Klucel (hydroxypropylcellulose) (HPC)); 90 % of control under setting [10]; 93 % of control under setting [12].

`O=[N+]([O-])c1c(Br)ncn1Cc1ccccc1`: the T/C was 99 % of control (dose: 100.0 mg/kg/injection, schedule: Q04DX003 (ip), vehicle: acetone) and 96 % of control (dose: 200.0 mg/kg/injection, schedule: Q04DX003 (ip), vehicle: acetone).

As for `COc1ccc(C(=O)c2cnc(C)n2Cc2ccccc2)cc1`, the T/C by setting is: under setting [10], 106 % of control; under setting [12], 106 % of control; under setting [14], 114 % of control.

Turning to `Nc1ncc(-c2ccccc2)nn1` (tested in a mixture with another compound), the T/C by setting is: under setting [9], 90 % of control; under setting [11], 90 % of control; under setting [13], 116 % of control.

The values are drawn from PubChem BioAssay AID248 (DTP/NCI, 2004).
